This note sets out measurements from patent US7842324B2 (Senomyx, Inc., priority 2005, dated 2010).

Data set [1] addresses T1, hT1R2/hT1R3 sweet receptor expressed in HEK293 cell line (Homo sapiens, UniProt Q7RTX0+Q8TE23).
T1 construct: expressed in transfected cells; host or cells: HEK293 derivative stably expressing Gα15 and hT1R2/hT1R3, clone S-9
T1 sequence (Q8TE23 20-839): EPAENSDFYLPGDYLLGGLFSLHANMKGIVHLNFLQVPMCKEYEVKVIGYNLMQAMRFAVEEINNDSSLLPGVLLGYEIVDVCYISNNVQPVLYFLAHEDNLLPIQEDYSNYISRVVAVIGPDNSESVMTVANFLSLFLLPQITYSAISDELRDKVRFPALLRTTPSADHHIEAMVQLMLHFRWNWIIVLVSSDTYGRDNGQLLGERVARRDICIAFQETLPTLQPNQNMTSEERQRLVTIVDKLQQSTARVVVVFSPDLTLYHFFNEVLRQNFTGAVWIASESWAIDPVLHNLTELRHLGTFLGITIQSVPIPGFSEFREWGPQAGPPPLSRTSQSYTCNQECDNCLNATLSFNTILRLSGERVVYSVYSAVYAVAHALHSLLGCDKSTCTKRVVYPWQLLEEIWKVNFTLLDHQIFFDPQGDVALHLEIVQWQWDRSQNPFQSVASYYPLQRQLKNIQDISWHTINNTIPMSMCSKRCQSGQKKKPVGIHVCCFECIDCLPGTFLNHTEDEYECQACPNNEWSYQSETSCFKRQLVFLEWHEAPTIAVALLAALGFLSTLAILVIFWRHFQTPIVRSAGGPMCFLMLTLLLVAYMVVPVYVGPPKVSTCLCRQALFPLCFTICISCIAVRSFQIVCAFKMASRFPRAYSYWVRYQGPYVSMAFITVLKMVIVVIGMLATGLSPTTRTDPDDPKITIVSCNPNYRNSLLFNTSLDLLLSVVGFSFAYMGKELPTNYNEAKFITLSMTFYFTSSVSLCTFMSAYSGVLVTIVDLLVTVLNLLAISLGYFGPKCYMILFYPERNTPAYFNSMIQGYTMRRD
T1 sequence (Q7RTX0 21-852): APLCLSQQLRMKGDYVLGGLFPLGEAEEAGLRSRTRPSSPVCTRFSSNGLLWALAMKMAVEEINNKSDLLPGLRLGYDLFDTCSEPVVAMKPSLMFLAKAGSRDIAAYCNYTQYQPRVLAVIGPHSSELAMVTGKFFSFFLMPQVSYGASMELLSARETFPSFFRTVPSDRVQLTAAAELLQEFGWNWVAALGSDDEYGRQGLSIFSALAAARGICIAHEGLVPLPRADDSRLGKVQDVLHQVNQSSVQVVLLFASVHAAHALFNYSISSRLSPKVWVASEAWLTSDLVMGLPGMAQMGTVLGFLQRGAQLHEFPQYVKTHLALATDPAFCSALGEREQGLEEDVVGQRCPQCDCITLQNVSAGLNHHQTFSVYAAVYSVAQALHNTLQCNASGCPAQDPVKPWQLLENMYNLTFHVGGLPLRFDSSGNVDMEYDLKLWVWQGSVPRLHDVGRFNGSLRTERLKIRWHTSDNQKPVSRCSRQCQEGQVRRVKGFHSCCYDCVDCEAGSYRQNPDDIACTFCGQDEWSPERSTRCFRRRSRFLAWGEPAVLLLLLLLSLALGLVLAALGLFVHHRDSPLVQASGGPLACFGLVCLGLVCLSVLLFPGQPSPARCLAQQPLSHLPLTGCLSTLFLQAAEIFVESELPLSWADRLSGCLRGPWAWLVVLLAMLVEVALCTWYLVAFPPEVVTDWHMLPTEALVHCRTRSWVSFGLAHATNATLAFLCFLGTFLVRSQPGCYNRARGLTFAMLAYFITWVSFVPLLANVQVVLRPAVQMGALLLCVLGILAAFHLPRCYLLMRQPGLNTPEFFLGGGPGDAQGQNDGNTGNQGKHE
Put plainly: In vitro hT1R2/hT1R3-HEK293 taste receptor activation assay (FLIPR). Conditions: read-out: EC50 for activation of a hT1R2/hT1R3 sweet receptor expressed in HEK293 cell line. Type of data set: cell-based. The gist of the method:
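HEK293 cells stably expressing Gα15 and hT1R2/hT1R3 were loaded with Fluo-3AM (4 μM, 1 h, room temperature), then stimulated at room temperature in D-PBS. Peak fluorescence (ex 480/em 535 nm) was normalized to basal. Dose-responses were run in duplicate over 60 nM–30 μM, normalized to 400 mM D-fructose, and EC50 fitted by free-Hill non-linear regression.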

The test system of data set [2] is Human Panelists. Put plainly: Line Scale sensory testing human taste test (Table C). The format is in vivo. Conditions: low sodium buffer pH 7.1. An excerpt: Purpose: To create a dose-response curve for perceived sweetness intensity of fructose-glucose concentrations. Test samples containing experimental compound are compared to this dose-response curve to determine equivalent sweetness intensity. This type of study requires a number of evaluations in order to obtain statistically significant data, so the test may be repeated with the same or additional panelists.
Overview: A group of eight or more panelists taste solutions including fructose-glucose at various concentrations, as well as the experimental compound, both with and without added fructose-glucose. Panelists rate sweetness intensity of all samples on an unstructured horizontal line scale, anchored from 0 to 10, where 0 equals no sweetness and 10 equals intense sweetness. Scores for sweetness intensity are averaged across panelists. Then using the average scores and/or equation of the line for the fructose-glucose dose-response curve, equivalent sweetness fructose-glucose concentrations are determined for the samples containing experimental compound.
Procedure: Eight or more subjects are used for the Line Scale tests. Subjects have been previously familiarized with the key attribute taste and are trained to use the 0 to 10 unstructured line scale. Subjects refrain from eating or drinking (except water) for at least 1 hour prior to the test. Subjects eat a cracker and rinse with water several times to clean the mouth.
Fructose-glucose solutions are provided at a wide range of concentrations, such as 0%, 2%, 4%, 6%, 8%, and 10% fructose-glucose, in order to create the dose-response curve. Samples containing experimental compound are prepared both alone and in a 6% fructose-glucose solution. All samples are made up in low sodium buffer pH 7.1. In order to aid dispersion, solutions can also be made up in 0.1% ethanol.
The solutions are dispensed in 20 ml volumes into 1 oz. sample cups and served to the subjects at room temperature. All samples are presented in randomized counterbalanced order to reduce response bias. Further, two sessions of testing may be used to check panel precision.
Subjects taste each sample individually and rate sweetness intensity on the line scale prior to tasting the next sample. All samples are expectorated. Subjects may retaste the samples but can only use the volume of sample given. Subjects must rinse with water between samples. Eating an unsalted cracker between sample pairs may be required depending on the samples tasted.
The scores for each sample are averaged across subjects and standard error is calculated. The dose-response curve is plotted graphically, and this may be used to ensure the panel is rating accurately; i.e. increasing the concentration of fructose-glucose should correspond to increased average scores for sweetness. A 2-way ANOVA (factors being samples and panelists) and multiple comparison tests (such as Tukey's Honestly Significant Difference test) can be used to determine differences among samples and/or panelists. A 3-way ANOVA, with sessions as the third factor, can be used to determine if there is any difference in the ratings between sessions.

Data set [3] relates to Human Panelists. Put plainly: Difference from Reference human taste test (Table B). The format is in vivo. Conditions: 5 μM compound + 6% fructose/glucose, pH 7.1. An excerpt: Purpose: To determine how the intensity of a test sample of an experimental compound differs from that of a reference sample in terms of sweetness. This type of study requires a larger number of evaluations in order to obtain statistically significant data, so the test may be repeated with the same or additional panelists.
Subjects rate the difference in intensity of the test sample compared to the reference sample for the key attribute on a scale of −5 (much less sweet than the reference) to +5 (much sweeter than the reference). A score of 0 indicates the test sample is equally as sweet as the reference.
Procedure: Ten or more Subjects are used for the Difference from Reference tests. Subjects have been previously familiarized with the key attribute taste and are trained to use the −5 to +5 scale. Subjects refrain from eating or drinking (except water) for at least 1 hour prior to the test. Subjects eat a cracker and rinse with water four times to clean the mouth. […]
The scores for each test are averaged across Subjects and standard error is calculated. Panel accuracy can be determined using the score from the blind reference test. […]

The mark [4] stands for this setting: 5 μM compound + 6% fructose/glucose.
Setting [5] is: 10 μM compound + 6% fructose/glucose.

In the case of `COCc1cccc(-c2ccc(C(C)(C)C(=O)NCC(C)C)cc2OC)c1` [Compound 27, N-isobutyl-2-(2-methoxy-3′-(methoxymethyl)biphenyl-4-yl)-2-methylpropanamide], the EC50 in data set [1] was 260 nM. Besides, the “Perceived Equivalent Sweet Solution” value in data set [2] (setting [4]) is recorded as “Equal to 8% fructose/ % fructose/glucose”.
Turning to `CC(C)CNC(=O)C(C)(C)c1ccc(-c2cncnc2)cc1` [Compound 43, N-isobutyl-2-methyl-2-(4-(pyrimidin-5-yl)phenyl)propanamide], the EC50 in data set [1] is 1010 nM. Besides, in data set [2] (setting [5]), the “Perceived Equivalent Sweet Solution” value is “Equal to 8% fructose/ % fructose/glucose”.
The melting point is the temperature of the solid-liquid transition. With `CC[C@@H](CO)NC(=O)C(C)(C)c1ccc(-c2cccc(COC)c2)cc1` [Compound 39, (S)-N-(1-hydroxybutan-2-yl)-2-(3′-(methoxymethyl)biphenyl-4-yl)-2-methylpropanamide], the melting point was in the range of 73 to 75 °C. In data set [1], the EC50 was 1870 nM. Besides, the “Perceived Equivalent Sweet Solution” value in data set [2] (15 μM compound + 6% fructose/glucose) was “Equal to 8% fructose/ % fructose/glucose”.
Consider `COCc1cccc(-c2ccc(C(C)(C)C(=O)NCC(C)C)cc2)c1` [Compound 30, N-isobutyl-2-(3′-(methoxymethyl)biphenyl-4-yl)-2-methylpropanamide], for which the EC50 in data set [1] was 610 nM. For the same compound, the “Perceived Equivalent Sweet Solution” value in data set [2] (setting [4]) is “Equal to 10% fructose/ % fructose/glucose”.
As to `CC(C)CNC(=O)C(C)(C)c1ccc(-c2cccn2C)cc1` [Compound 34, N-isobutyl-2-methyl-2-(4-(1-methyl-1H-pyrrol-2-yl)phenyl)propanamide], the melting point lay within 59 to 60 °C. In addition, the EC50 in data set [1] amounted to 960 nM. Besides, in data set [2] (setting [4]), the “Perceived Equivalent Sweet Solution” value is on record as “Equal to 8% fructose/ % fructose/glucose”.
`COCc1cncc(-c2ccc(C(C)(C)C(=O)NCC(C)C)cc2)c1` [Compound 32, N-isobutyl-2-(4-(5-(methoxymethyl)pyridin-3-yl)phenyl)-2-methylpropanamide]: the EC50 in data set [1] worked out at 910 nM. In addition, the “Perceived Equivalent Sweet Solution” value in data set [2] (setting [5]) is given as “Equal to 8% fructose/ % fructose/glucose”.
For `CCC(C)CNC(=O)C(C)(C)c1ccc(-c2cncnc2)cc1` (stereo not drawn) [Compound 25, 2-methyl-N-(2-methylbutyl)-2-(4-(pyrimidin-5-yl)phenyl)propanamide] the same measures were 230 nM and “Equal to 10% fructose/ % fructose/glucose”.
As to `Cc1cscc1-c1ccc(C(C)(C)C(=O)NCC(C)C)cc1` [Compound 2, N-Isobutyl-2-methyl-2-(4-(4-methylthiophen-3-yl)phenyl)propanamide], the “Perceived Equivalent Sweet Solution” value in data set [3] is at least 9% fructose/glucose. Also, the EC50 in data set [1] is 850 nM.
Turning to `CC(C)CNC(=O)C(C)(C)c1ccc(-c2cncc(C#N)n2)cc1` [Compound 20, 2-(4-(6-cyanopyrazin-2-yl)phenyl)-N-isobutyl-2-methylpropanamide], the EC50 in data set [1] stood at 20 nM. The “Perceived Equivalent Sweet Solution” value in data set [2] (setting [5]) is recorded as “Equal to 10% fructose/ % fructose/glucose”; in data set [2] (10 μM compound alone) it was “Equal to 6% fructose/ % fructose/glucose”.
